US11208412B2 (DAEGU-GYEONGBUK MEDICAL INNOVATION FOUNDATION, priority 2017, dated 2021)

Assays:
Test in all cases: Kinase selectivity, DiscoverX scanMAX Kinase assay panel (% control)
Assay type in all cases: binding
[1] = molecular target: T1, kinases of the scanMAX Kinase assay panel (Homo sapiens, UniProt O94806); conditions: PRKD3; 1 uM
T1 construct: purchased DiscoverX Co. (contract measurement) scanMAX Kinase assay panel
T1 sequence (O94806 1-890): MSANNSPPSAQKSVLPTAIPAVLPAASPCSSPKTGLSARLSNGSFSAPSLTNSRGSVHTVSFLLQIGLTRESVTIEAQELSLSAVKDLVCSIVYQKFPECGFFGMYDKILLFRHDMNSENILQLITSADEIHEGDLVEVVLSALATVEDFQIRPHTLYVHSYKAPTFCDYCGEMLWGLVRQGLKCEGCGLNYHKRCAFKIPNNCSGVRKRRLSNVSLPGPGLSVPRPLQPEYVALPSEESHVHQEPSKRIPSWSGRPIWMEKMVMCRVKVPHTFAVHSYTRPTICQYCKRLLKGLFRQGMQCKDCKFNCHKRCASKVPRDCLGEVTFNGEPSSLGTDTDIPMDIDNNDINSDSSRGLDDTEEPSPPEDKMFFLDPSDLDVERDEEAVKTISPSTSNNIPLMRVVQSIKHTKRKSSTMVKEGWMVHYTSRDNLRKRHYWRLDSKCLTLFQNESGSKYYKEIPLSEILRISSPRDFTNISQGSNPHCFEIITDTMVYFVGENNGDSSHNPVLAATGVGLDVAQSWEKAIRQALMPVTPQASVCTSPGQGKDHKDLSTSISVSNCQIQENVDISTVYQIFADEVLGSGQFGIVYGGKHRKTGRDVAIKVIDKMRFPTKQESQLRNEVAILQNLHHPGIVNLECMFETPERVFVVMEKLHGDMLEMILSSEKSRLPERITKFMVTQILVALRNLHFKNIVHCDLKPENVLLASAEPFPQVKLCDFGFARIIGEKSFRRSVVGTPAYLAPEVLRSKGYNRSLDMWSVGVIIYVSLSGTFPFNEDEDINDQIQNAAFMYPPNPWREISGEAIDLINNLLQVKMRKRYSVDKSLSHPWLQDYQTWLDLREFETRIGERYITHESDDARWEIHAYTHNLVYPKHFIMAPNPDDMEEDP
In short: (§1)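 Single-point screen, 1 uM cpd in DMSO. % ctrl = (cpd − pos ctrl)/(neg ctrl − pos ctrl)×100; pos ctrl = 0%, DMSO neg ctrl = 100%. Hit cutoff <35%.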

[2] = molecular target: T2, kinases of the scanMAX Kinase assay panel (Homo sapiens, UniProt P00519, Q252H); conditions: 1 uM
T2 construct: purchased DiscoverX Co. (contract measurement) scanMAX Kinase assay panel
In short: as §1

[3] = molecular target: T3, kinases of the scanMAX Kinase assay panel (Homo sapiens, UniProt P45983); conditions: JNK1; 1 uM
T3 construct: purchased DiscoverX Co. (contract measurement) scanMAX Kinase assay panel
In short: as §1

[4] = molecular target: T4, kinases of the scanMAX Kinase assay panel (Homo sapiens, UniProt Q9UEW8); conditions: kinase STK39; 1 uM in DMSO
T4 construct: purchased DiscoverX Co. (contract measurement) scanMAX Kinase assay panel
In short: as §1

[5] = molecular target: T5, kinases of the scanMAX Kinase assay panel (Homo sapiens, UniProt Q9Y2U5); conditions: MAP3K2; 1 uM
T5 construct: purchased DiscoverX Co. (contract measurement) scanMAX Kinase assay panel
T5 sequence (Q9Y2U5 1-619): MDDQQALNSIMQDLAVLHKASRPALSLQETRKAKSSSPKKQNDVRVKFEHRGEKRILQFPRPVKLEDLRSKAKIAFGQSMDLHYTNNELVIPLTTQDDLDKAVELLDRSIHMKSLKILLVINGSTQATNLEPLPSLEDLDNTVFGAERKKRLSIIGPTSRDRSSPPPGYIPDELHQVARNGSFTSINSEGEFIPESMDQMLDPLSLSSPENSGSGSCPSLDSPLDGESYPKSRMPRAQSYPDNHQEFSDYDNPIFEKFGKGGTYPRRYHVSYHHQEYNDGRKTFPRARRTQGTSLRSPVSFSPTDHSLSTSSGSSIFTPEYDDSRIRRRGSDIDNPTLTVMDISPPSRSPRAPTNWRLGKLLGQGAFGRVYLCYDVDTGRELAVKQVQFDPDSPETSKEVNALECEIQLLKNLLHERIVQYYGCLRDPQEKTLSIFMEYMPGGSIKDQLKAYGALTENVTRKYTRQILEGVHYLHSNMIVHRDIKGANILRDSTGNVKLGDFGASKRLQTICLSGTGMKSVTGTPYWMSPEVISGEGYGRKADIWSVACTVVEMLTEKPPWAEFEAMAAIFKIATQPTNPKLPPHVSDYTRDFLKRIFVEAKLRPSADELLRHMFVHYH
In short: as §1

[6] = molecular target: T6, kinases of the scanMAX Kinase assay panel (Homo sapiens, UniProt Q9Y3S1); conditions: kinase WNK2; 1 uM in DMSO
T6 construct: purchased DiscoverX Co. (contract measurement) scanMAX Kinase assay panel
In short: as §1

T3 sequence (P45983 whole entry): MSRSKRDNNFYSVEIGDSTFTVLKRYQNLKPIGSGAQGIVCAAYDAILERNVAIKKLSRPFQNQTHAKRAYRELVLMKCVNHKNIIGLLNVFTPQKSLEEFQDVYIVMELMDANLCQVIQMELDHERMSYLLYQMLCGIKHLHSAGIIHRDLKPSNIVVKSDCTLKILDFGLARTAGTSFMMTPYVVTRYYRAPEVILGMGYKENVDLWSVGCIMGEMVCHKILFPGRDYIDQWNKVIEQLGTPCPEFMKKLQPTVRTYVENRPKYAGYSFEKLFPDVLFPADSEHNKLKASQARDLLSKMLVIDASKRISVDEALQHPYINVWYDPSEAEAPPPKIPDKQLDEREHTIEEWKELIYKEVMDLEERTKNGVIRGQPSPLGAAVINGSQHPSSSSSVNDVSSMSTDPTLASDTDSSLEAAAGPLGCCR
T6 sequence (Q9Y3S1 whole entry): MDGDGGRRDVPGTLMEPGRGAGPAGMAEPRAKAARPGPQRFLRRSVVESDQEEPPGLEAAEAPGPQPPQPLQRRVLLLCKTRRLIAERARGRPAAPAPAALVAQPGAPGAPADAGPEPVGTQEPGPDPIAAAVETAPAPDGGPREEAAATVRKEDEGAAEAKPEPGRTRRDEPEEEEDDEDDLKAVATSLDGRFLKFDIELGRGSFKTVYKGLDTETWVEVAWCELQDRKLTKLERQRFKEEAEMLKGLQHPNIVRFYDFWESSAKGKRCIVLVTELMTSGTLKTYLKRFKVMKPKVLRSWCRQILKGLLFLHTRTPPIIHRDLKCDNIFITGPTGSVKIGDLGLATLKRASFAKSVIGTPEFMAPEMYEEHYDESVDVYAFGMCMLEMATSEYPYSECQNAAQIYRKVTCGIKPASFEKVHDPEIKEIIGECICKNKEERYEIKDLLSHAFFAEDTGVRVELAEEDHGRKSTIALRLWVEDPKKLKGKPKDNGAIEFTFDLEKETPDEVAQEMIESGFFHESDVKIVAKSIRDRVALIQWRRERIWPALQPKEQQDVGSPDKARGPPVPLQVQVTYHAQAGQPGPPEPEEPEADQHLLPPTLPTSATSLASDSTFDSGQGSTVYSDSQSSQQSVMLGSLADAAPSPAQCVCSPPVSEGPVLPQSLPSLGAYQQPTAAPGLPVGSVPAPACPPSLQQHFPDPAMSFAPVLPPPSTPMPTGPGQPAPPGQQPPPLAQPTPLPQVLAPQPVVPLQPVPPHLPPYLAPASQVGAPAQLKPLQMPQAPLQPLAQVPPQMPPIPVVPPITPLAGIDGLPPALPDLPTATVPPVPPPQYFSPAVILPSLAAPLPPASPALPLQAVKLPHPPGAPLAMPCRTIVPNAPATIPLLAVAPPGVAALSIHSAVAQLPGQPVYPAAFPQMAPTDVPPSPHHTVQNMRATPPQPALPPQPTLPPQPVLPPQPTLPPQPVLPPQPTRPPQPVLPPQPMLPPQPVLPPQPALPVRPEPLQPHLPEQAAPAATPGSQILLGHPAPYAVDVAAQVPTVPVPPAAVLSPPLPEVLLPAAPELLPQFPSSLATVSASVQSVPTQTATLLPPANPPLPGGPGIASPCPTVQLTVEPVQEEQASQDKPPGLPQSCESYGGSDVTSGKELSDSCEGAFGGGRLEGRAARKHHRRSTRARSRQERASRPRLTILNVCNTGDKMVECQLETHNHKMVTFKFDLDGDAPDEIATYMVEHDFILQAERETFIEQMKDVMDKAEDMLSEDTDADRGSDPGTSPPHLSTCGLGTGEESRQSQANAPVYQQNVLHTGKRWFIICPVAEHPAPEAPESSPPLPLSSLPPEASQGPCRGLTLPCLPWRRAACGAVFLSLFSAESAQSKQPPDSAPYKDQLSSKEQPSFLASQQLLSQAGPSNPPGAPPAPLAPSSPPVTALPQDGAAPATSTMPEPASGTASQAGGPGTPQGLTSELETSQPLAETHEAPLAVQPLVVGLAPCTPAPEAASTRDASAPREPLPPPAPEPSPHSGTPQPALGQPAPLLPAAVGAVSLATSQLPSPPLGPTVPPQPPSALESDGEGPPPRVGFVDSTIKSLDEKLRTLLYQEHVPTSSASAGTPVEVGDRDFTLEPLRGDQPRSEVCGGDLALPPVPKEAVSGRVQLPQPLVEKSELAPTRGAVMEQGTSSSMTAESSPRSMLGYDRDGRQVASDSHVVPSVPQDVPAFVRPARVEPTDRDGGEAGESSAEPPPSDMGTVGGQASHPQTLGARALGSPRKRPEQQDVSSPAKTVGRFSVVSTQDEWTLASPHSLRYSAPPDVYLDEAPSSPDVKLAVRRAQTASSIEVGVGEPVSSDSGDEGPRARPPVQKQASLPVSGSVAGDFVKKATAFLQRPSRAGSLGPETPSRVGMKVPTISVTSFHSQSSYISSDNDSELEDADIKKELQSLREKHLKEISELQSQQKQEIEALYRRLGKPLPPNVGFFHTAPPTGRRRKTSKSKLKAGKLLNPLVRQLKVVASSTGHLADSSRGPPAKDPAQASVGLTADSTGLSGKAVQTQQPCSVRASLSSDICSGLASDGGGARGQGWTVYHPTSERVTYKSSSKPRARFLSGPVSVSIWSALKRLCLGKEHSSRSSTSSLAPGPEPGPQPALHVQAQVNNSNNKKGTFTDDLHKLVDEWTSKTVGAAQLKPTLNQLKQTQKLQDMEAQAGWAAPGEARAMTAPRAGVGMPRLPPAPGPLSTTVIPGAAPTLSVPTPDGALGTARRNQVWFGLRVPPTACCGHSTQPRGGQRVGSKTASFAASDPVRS

| Structure (SMILES) | remaining binding at 1 µM [1] | remaining binding at 1 µM ([2]; ABL1(Q252H)-nonphosphorylated) | remaining binding at 1 µM ([2]; ABL1(Q252H)-phosphorylated) | remaining binding at 1 µM [3] | remaining binding at 1 µM [4] | remaining binding at 1 µM [5] | remaining binding at 1 µM [6] |
| --- | --- | --- | --- | --- | --- | --- | --- |
| CCNc1nc(Nc2ccc(C(=O)N3CCC(N4CCOCC4)CC3)cc2OC)nc2[nH]cc(C(F)(F)F)c12 [Example 104, (4-((4-(ethylamino)-5-(trifluoromethyl)-7H-pyrrolo[2,3-d]pyrimidine-2-yl)amino)-3-methoxyphenyl)(4-morpholinopiperidine-1-yl)methanone] | 17% | 99% | 82% | 25% | 30% | 92% | 100% |
| CC1(Nc2nc(Nc3cnn([C@H]4CCN(C5COC5)C[C@@H]4F)c3Cl)nc3[nH]cc(C#N)c23)CC1 [Example 52, 2-((5-chloro-1-((3S,4S)-3-fluoro-1-(oxetane-3-yl)piperidine-4-yl)-1H-pyrazole-4-yl)amino)((1-methylcyclopropyl)amino)-7H-pyrrolo[2,3-d]pyrimidine-5-carbonitrile] | 0.7% | 1.1% | 0.25% | 0% | 0% | 0.05% | 56% |
| CNc1nc(Nc2ccc(C(=O)N3CCOCC3)cc2OC)nc2[nH]cc(C#N)c12 [Example 1, 2-((2-methoxy-4-(morpholine-4-carbonyl)phenyl)amino)-4-(methylamino)-7H-pyrrolo[2,3-d]pyrimidine-5-carbonitrile] | 39% | 57% | 100% | 0% | 14% | 85% | 52% |
